According to PubChem BioAssay (NCI):
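Exposure lasted 48 hours, with cells grown in 96-well plates and compounds tested at five concentrations. TGI: concentration producing complete growth inhibition.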

How the values were obtained:
Assay in all cases: DTP human tumour cell line panel, 48 h
OVCAR-5 ovarian = tested on: OVCAR-5 ovarian
UACC-257 melanoma = tested on: UACC-257 melanoma
OVCAR-8 ovarian = tested on: OVCAR-8 ovarian
SNB-19 CNS = tested on: SNB-19 CNS
UO-31 renal = tested on: UO-31 renal
SK-OV-3 ovarian = tested on: SK-OV-3 ovarian
COLO 205 colon = tested on: COLO 205 colon
A498 renal = tested on: A498 renal
SNB-78 CNS = tested on: SNB-78 CNS
RXF-631 renal = tested on: RXF-631 renal
HCT-15 colon = tested on: HCT-15 colon
SW-620 colon = tested on: SW-620 colon
CCRF-CEM leukemia = tested on: CCRF-CEM leukemia
NCI-H226 lung = tested on: NCI-H226 lung
SK-MEL-5 melanoma = tested on: SK-MEL-5 melanoma
KM20L2 colon = tested on: KM20L2 colon
786-0 renal = tested on: 786-0 renal
LOX IMVI melanoma = tested on: LOX IMVI melanoma
DMS 114 small cell lung = tested on: DMS 114 small cell lung
IGROV1 ovarian = tested on: IGROV1 ovarian
HOP-18 NSCLC = tested on: HOP-18 NSCLC
ACHN renal = tested on: ACHN renal
K-562 leukemia = tested on: K-562 leukemia
A549 NSCLC = tested on: A549 NSCLC
SK-MEL-28 melanoma = tested on: SK-MEL-28 melanoma
SF-268 CNS = tested on: SF-268 CNS
TK-10 renal = tested on: TK-10 renal
M19-MEL melanoma = tested on: M19-MEL melanoma
UACC-62 melanoma = tested on: UACC-62 melanoma
RPMI-8226 leukemia = tested on: RPMI-8226 leukemia
SF-539 CNS = tested on: SF-539 CNS
NCI-H460 lung = tested on: NCI-H460 lung
KM12 colon = tested on: KM12 colon
OVCAR-3 ovarian = tested on: OVCAR-3 ovarian
U251 CNS = tested on: U251 CNS
LXFL 529 NSCLC = tested on: LXFL 529 NSCLC
NCI-H23 lung = tested on: NCI-H23 lung
SF-295 CNS = tested on: SF-295 CNS
SK-MEL-2 melanoma = tested on: SK-MEL-2 melanoma
M14 melanoma = tested on: M14 melanoma
EKVX NSCLC = tested on: EKVX NSCLC
SNB-75 CNS = tested on: SNB-75 CNS
HCC-2998 colon = tested on: HCC-2998 colon
MALME-3M melanoma = tested on: MALME-3M melanoma
SN12C renal = tested on: SN12C renal
NCI-H522 lung = tested on: NCI-H522 lung
HL-60(TB) leukemia = tested on: HL-60(TB) leukemia
RXF 393 renal = tested on: RXF 393 renal
MOLT-4 leukemia = tested on: MOLT-4 leukemia
HOP-62 NSCLC = tested on: HOP-62 NSCLC
HCT-116 colon = tested on: HCT-116 colon
DLD-1 colon = tested on: DLD-1 colon
SR leukemia = tested on: SR leukemia
CAKI-1 renal = tested on: CAKI-1 renal
OVCAR-4 ovarian = tested on: OVCAR-4 ovarian
DMS 273 small cell lung = tested on: DMS 273 small cell lung
HOP-92 NSCLC = tested on: HOP-92 NSCLC
HT29 colon = tested on: HT29 colon

## c1ccc(OCCSCCCCCCCCCCSCCOc2ccccc2)cc1
OVCAR-5 ovarian
  TGI: > 100 µM
UACC-257 melanoma
  TGI: > 100 µM
OVCAR-8 ovarian
  TGI: > 100 µM
SNB-19 CNS
  TGI: > 100 µM
UO-31 renal
  TGI: > 100 µM
SK-OV-3 ovarian
  TGI: > 100 µM
COLO 205 colon
  TGI: > 100 µM
A498 renal
  TGI: > 100 µM
SNB-78 CNS
  TGI: > 100 µM
RXF-631 renal
  TGI: > 100 µM
HCT-15 colon
  TGI: > 100 µM
SW-620 colon
  TGI: > 100 µM
CCRF-CEM leukemia
  TGI: > 100 µM
NCI-H226 lung
  TGI: > 100 µM
SK-MEL-5 melanoma
  TGI: > 100 µM
KM20L2 colon
  TGI: > 100 µM
786-0 renal
  TGI: > 100 µM
LOX IMVI melanoma
  TGI: > 100 µM
DMS 114 small cell lung
  TGI: > 100 µM
IGROV1 ovarian
  TGI: > 100 µM
HOP-18 NSCLC
  TGI: > 100 µM
ACHN renal
  TGI: > 100 µM
K-562 leukemia
  TGI: > 100 µM
A549 NSCLC
  TGI: > 100 µM
SK-MEL-28 melanoma
  TGI: > 100 µM
SF-268 CNS
  TGI: > 100 µM
TK-10 renal
  TGI: > 100 µM
M19-MEL melanoma
  TGI: > 100 µM
UACC-62 melanoma
  TGI: > 100 µM
RPMI-8226 leukemia
  TGI: > 100 µM
SF-539 CNS
  TGI: > 100 µM
NCI-H460 lung
  TGI: > 100 µM
KM12 colon
  TGI: > 100 µM
OVCAR-3 ovarian
  TGI: > 100 µM
U251 CNS
  TGI: > 100 µM
LXFL 529 NSCLC
  TGI: > 100 µM
NCI-H23 lung
  TGI: > 100 µM
SF-295 CNS
  TGI: > 100 µM
SK-MEL-2 melanoma
  TGI: > 100 µM
M14 melanoma
  TGI: > 100 µM
EKVX NSCLC
  TGI: > 100 µM
SNB-75 CNS
  TGI: > 100 µM
HCC-2998 colon
  TGI: > 100 µM
MALME-3M melanoma
  TGI: 90.4 µM
SN12C renal
  TGI: > 100 µM
NCI-H522 lung
  TGI: > 100 µM
HL-60(TB) leukemia
  TGI: > 100 µM
RXF 393 renal
  TGI: > 100 µM
MOLT-4 leukemia
  TGI: > 100 µM
HOP-62 NSCLC
  TGI: > 100 µM

## O=C(O)[C@@H]1CCCC[C@@H]1C(=O)N(C1CCCCC1)C1CCCCC1
HCT-116 colon
  TGI: > 100 µM
DLD-1 colon
  TGI: > 100 µM
OVCAR-5 ovarian
  TGI: > 100 µM
UACC-257 melanoma
  TGI: > 100 µM
OVCAR-8 ovarian
  TGI: > 100 µM
SR leukemia
  TGI: > 100 µM
UO-31 renal
  TGI: > 100 µM
SK-OV-3 ovarian
  TGI: > 100 µM
CAKI-1 renal
  TGI: > 100 µM
COLO 205 colon
  TGI: > 100 µM
A498 renal
  TGI: > 100 µM
SNB-78 CNS
  TGI: > 100 µM
RXF-631 renal
  TGI: > 100 µM
HCT-15 colon
  TGI: > 100 µM
SW-620 colon
  TGI: > 100 µM
CCRF-CEM leukemia
  TGI: > 100 µM
NCI-H226 lung
  TGI: > 100 µM
SK-MEL-5 melanoma
  TGI: > 100 µM
KM20L2 colon
  TGI: > 100 µM
786-0 renal
  TGI: > 100 µM
LOX IMVI melanoma
  TGI: > 100 µM
DMS 114 small cell lung
  TGI: > 100 µM
IGROV1 ovarian
  TGI: > 100 µM
ACHN renal
  TGI: > 100 µM
K-562 leukemia
  TGI: > 100 µM
A549 NSCLC
  TGI: > 100 µM
SK-MEL-28 melanoma
  TGI: > 100 µM
SF-268 CNS
  TGI: > 100 µM
OVCAR-4 ovarian
  TGI: > 100 µM
TK-10 renal
  TGI: > 100 µM
M19-MEL melanoma
  TGI: > 100 µM
UACC-62 melanoma
  TGI: > 100 µM
DMS 273 small cell lung
  TGI: > 100 µM
RPMI-8226 leukemia
  TGI: > 100 µM
SF-539 CNS
  TGI: > 100 µM
HOP-92 NSCLC
  TGI: > 100 µM
NCI-H460 lung
  TGI: > 100 µM
KM12 colon
  TGI: > 100 µM
OVCAR-3 ovarian
  TGI: > 100 µM
U251 CNS
  TGI: > 100 µM
LXFL 529 NSCLC
  TGI: > 100 µM
HT29 colon
  TGI: > 100 µM
NCI-H23 lung
  TGI: > 100 µM
SF-295 CNS
  TGI: > 100 µM
SK-MEL-2 melanoma
  TGI: > 100 µM
M14 melanoma
  TGI: > 100 µM
EKVX NSCLC
  TGI: > 100 µM
SNB-75 CNS
  TGI: > 100 µM
HCC-2998 colon
  TGI: > 100 µM
MALME-3M melanoma
  TGI: > 100 µM
SN12C renal
  TGI: > 100 µM
NCI-H522 lung
  TGI: > 100 µM
HL-60(TB) leukemia
  TGI: > 100 µM
MOLT-4 leukemia
  TGI: > 100 µM
HOP-62 NSCLC
  TGI: > 100 µM
